In data set [1] the target is T1, Glucagon-like peptide-1 receptor (GLP1R) (Homo sapiens, UniProt P43220).
T1 construct: expressed in transfected cells; host or cells: HEK293
The data set can be described thus: Agonist activity on GLP1R, cAMP response element luciferase reporter gene in HEK293 cells. The following applies: HEK293 cells stably transfected with GLP1R and pCRE-Luc, 5 hours incubation; read-out: Maximum reaction rate. The data set is classed as cell-based. From the text: GLP1R is a receptor coupled with Gs protein, of which the binding with the agonists will result in an increase of intracellular cAMP concentration. In the present experiment, GLP1R and the luciferase reporter gene plasmid regulated by cAMP response elements are co-transfected into HEK293 cells. When the compound binds to the receptor and activates the receptors, the expression of the luciferase will increase. The activation status of the compound to GLP1R can be learned by testing the activity of the luciferase.
2. The compounds or positive drugs having a certain concentration gradient were added (3 wells per concentration) and incubated at 37° C. for 5 hours. The negative control was solvent DMSO.
3. 50 μl culture medium was taken from each well, and 50 μl of the luciferase substrate were added and vortexed for 10 minutes.
4. 80 μl reaction solution was taken and transferred to a white 96 well plate, then detected on the Invision microplate reader (enzyme-labelling measuring instrument).
(Reporter assays use an easily measured gene product as a stand-in for the process of interest.)

Data set [2] deals with db/db mice with type 2 diabetes. The data set can be described thus: Random blood glucose of db/db mice after single subcutaneous injection. The data set is classed as in vivo. As to conditions: for random blood glucose: n = 8; for decrease rate of random blood glucose: versus control group. Here is the method:
db/db mice with type 2 diabetes were divided into six groups based on a random blood glucose and body weight (8 per group). […] The random blood glucose of the mice is determined at differete time after administration.
Preparation method: 1 bottle of the compound (2 mg/bottle) was dissolved with double-distilled water to prepare a colorless and transparent solution of which the concentration is 2 mg/mL. […] “ACCU-CHEK® Advantage” blood glucose meter form Roche was used to determine the blood glucose.
Route and volume of administration: Single subcutaneous injection dose, dose volume was 5 mL/kg. […]
The random blood glucoses of db/db mice were measured.
Each group has 8 mice, half male and half female. The animals of each group were administered with the test compounds or solvent control respectively through single subcutaneous injection.

The conditions of data set [3]: cited from earlier work.

Data on two compounds can be found in US8614182B2 (Jiangsu Hansoh Pharmaceuticals Co., Ltd., priority 2009, dated 2013).

Non-standard residues stand in square brackets, D forms with d. Residues, ends and D or L forms follow the SMILES beside them. *: point of attachment. εLys(Nα-Palmitoyl) = CCCCCCCCCCCCCCCC(=O)N[C@@H](CCCCN*)C(=O)O; Aib = CC(C)(N)C(=O)O

T1 sequence (P43220 24-463, species assumed): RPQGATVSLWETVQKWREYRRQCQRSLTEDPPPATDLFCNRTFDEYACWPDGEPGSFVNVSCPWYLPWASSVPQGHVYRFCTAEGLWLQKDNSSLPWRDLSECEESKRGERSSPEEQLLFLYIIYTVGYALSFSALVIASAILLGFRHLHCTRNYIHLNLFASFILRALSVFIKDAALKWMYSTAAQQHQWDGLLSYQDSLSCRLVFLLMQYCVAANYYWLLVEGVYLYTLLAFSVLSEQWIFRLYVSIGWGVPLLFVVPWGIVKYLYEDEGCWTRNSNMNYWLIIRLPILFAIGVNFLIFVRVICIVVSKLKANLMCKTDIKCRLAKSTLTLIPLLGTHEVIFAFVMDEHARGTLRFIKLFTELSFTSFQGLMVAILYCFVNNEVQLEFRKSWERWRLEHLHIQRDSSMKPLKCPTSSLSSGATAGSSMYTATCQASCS

With `CCCCCCCCCCCCCCCC(=O)N[C@@H](CCCCNC(=O)[C@H](CO)NC(=O)[C@@H]1CCCN1C(=O)[C@@H]1CCCN1C(=O)[C@@H]1CCCN1C(=O)[C@H](C)NC(=O)CNC(=O)[C@H](CO)NC(=O)[C@H](CO)NC(=O)[C@@H]1CCCN1C(=O)CNC(=O)CNC(=O)[C@H](CCCNC(=N)N)NC(=O)[C@@H](NC(=O)[C@H](CC(C)C)NC(=O)[C@H](Cc1c[nH]c2ccccc12)NC(=O)[C@H](C)NC(=O)[C@@H](NC(=O)[C@H](Cc1ccccc1)NC(=O)[C@H](CCC(=O)O)NC(=O)[C@H](CCCCN)NC(=O)[C@H](C)NC(=O)[C@H](C)NC(=O)[C@H](CCC(=O)O)NC(=O)[C@H](CCC(=O)O)NC(=O)[C@H](CCC(=O)O)NC(=O)[C@H](CC(C)C)NC(=O)[C@H](Cc1ccc(O)cc1)NC(=O)[C@H](CO)NC(=O)[C@H](CO)NC(=O)[C@@H](NC(=O)[C@H](CC(=O)O)NC(=O)[C@H](CO)NC(=O)[C@@H](NC(=O)[C@H](Cc1ccccc1)NC(=O)[C@@H](NC(=O)CNC(=O)[C@H](CCC(=O)O)NC(=O)C(C)(C)NC(=O)[C@@H](N)Cc1c[nH]cn1)[C@@H](C)O)[C@@H](C)O)C(C)C)[C@@H](C)CC)C(C)C)C(=O)O` [HS-20004] (H-H[Aib]EGTFTSDVSSYLEEEAAKEFIAWLVRGGPSSGAPPPS-{εLys(Nα-Palmitoyl)}; N-terminus and C-terminus assumed), the Emax in data set [1] amounted to 90.8%. For the same compound, the random blood glucose in data set [2] (3 μg/kg single s.c., 1 h after administration, X ± s) turned out to be 20.11 ± 1.28 mmol/L; in data set [2] (3 μg/kg single s.c., 2 h after administration, X ± s) it was 18.81 ± 1.50 mmol/L; in data set [2] (3 μg/kg single s.c., 4 h after administration, X ± s), 17.98 ± 1.38 mmol/L; in data set [2] (3 μg/kg single s.c., 8 h after administration, X ± s), 23.30 ± 1.47 mmol/L; in data set [2] (3 μg/kg single s.c., before administration, X ± s), 25.11 ± 1.63 mmol/L; in data set [2] (10 μg/kg single s.c., 1 h after administration, ± s) it was 19.63 ± 1.81 mmol/L. For the same compound, the random blood glucose in data set [2] (10 μg/kg single s.c., 2 h after administration, ± s) is given as 21.86 ± 1.66 mmol/L; in data set [2] (10 μg/kg single s.c., 4 h after administration, ± s), 21.44 ± 1.68 mmol/L; in data set [2] (10 μg/kg single s.c., 8 h after administration, ± s) it was 23.80 ± 1.46 mmol/L; in data set [2] (10 μg/kg single s.c., 24 h after administration, ± s) it was 25.64 ± 1.85 mmol/L; in data set [2] (10 μg/kg single s.c., before administration, ± s) it was 23.18 ± 1.65 mmol/L. For the same compound, the “decrease rate of random blood glucose” value in data set [2] (3 μg/kg single s.c., 1 h after administration) is 15.00%; in data set [2] (3 μg/kg single s.c., 1 h after administration, listed as 20004), 15.00%; in data set [2] (3 μg/kg single s.c., 2 h after administration), 16.85%; in data set [2] (3 μg/kg single s.c., 4 h after administration), 18.30%; in data set [2] (3 μg/kg single s.c., 8 h after administration), 8.22%; in data set [2] (10 μg/kg single s.c., 1 h after administration), 36.20%. For the same compound, the “decrease rate of random blood glucose” value in data set [2] (10 μg/kg single s.c., 2 h after administration) is 27.82%; in data set [2] (10 μg/kg single s.c., 4 h after administration) it was 28.30%; in data set [2] (10 μg/kg single s.c., 8 h after administration), 23.32%; in data set [2] (10 μg/kg single s.c., 24 h after administration), 11.52%. In addition, the “random blood glucose values compared with those of the control group” value is “kept a lower level and had significant difference” in data set [2] (3 μg/kg single s.c., after 2 h and 4 h, P<0.05); “no significant difference” in data set [2] (3 μg/kg single s.c., after 8 hours); “decreased significantly” in data set [2] (3 μg/kg single s.c., after one hour, P<0.05); “still kept at a lower level” in data set [2] (10 μg/kg single s.c., after 4 h and 8 h); “not significantly different” in data set [2] (10 μg/kg single s.c., after 24 hours); “decreased immediately and significantly” in data set [2] (10 μg/kg single s.c., time not specified). In addition, the “effect on reducing random blood glucose compared within the series” value in data set [2] (single s.c.) is “much better effect”. Moreover, the “random blood glucose level (words, test conclusions)” value in data set [2] (single s.c., dose of 3 μg/kg (so in the source)) is “decreased obviously”.

Turning to glucagon-like peptide-1 [GLP-1], the in vivo half-life entry in data set [3] is on record as “about 2 minutes”.
